The values below come from US20080249088A1, “Topical Delivery of Antifungal Drugs” (priority 2007, published 2008).

The structures appear in SMILES notation.

The data set in a line: solubility in water. It counts as physicochemical. As for the experimental part: In the preferred embodiment, a 100 ml. mixture would be created by mixing 1 gram of butenafine with 5 ml. of benzyl alcohol at room temperature. This would then be dissolved into 85 ml. of ethanol, then 10 ml. of water would be added.

Regarding `CN(Cc1ccc(C(C)(C)C)cc1)Cc1cccc2ccccc12` [Butenafine, butenafine], the solubility in water result is reported as “limited solubility”.
